Test results published in the supplement of paper PMC11061612.

Columns and labels:
Trametinib = compound: CC(=O)Nc1cccc(-n2c(=O)n(C3CC3)c(=O)c3c(Nc4ccc(I)cc4F)n(C)c(=O)c(C)c32)c1 [Trametinib]; conditions: max 1 µM
Outline: (§1)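 In 1536-well plates, cancer cell lines in 7.5 μl DMEM/F12 or RPMI with 10% FBS spent 24 hours at 37°C and 5% CO2 and were then dosed for 72 hours with final DMSO typically 0.2%. Viability was read by CellTiter-Glo 2.0 luminescence and scaled between blank-well and DMSO-well means. The single-agent IC50 was fitted from dose responses using a logistic curve in a non-linear mixed effects model, and that logistic curve had two parameters.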

AZD1390 = compound: CC(C)n1c(=O)n(C)c2cnc3cc(F)c(-c4ccc(OCCCN5CCCCC5)nc4)cc3c21 [AZD1390]; conditions: max 0.3 µM
Outline: as §1

AZD5153 = compound: COc1nnc2ccc(N3CCC(c4ccc(OCCN5CCN(C)C(=O)[C@H]5C)cc4)CC3)nn12 [AZD5153]; conditions: max 1 µM
Outline: as §1

SG3199 = compound: CC1=CN2[C@@H](C1)C=NC3=CC(=C(C=C3C2=O)OC)OCCCCCOC4=C(C=C5C(=C4)N=C[C@@H]6CC(=CN6C5=O)C)OC [SG3199]; conditions: max 0.001 µM
Outline: as §1

Gefitinib = compound: COc1cc2ncnc(Nc3ccc(F)c(Cl)c3)c2cc1OCCCN1CCOCC1 [Gefitinib]; conditions: max 10 µM
Outline: as §1

AZD8186 = compound: C[C@@H](Nc1cc(F)cc(F)c1)c1cc(C(=O)N(C)C)cc2c(=O)cc(N3CCOCC3)oc12 [AZD8186]; conditions: max 3 µM
Outline: as §1

AZD0156 = compound: CN(C)CCCOc1ccc(-c2ccc3ncc4c(c3c2)n(C2CCOCC2)c(=O)n4C)cn1 [AZD0156]
Outline: as §1

Capivasertib = compound: C1CN(CCC1(C(=O)N[C@@H](CCO)C2=CC=C(C=C2)Cl)N)C3=NC=NC4=C3C=CN4 [Capivasertib]
Outline: as §1

Crizotinib = compound: C[C@@H](Oc1cc(-c2cnn(C3CCNCC3)c2)cnc1N)c1c(Cl)ccc(F)c1Cl [Crizotinib]; conditions: max 10 µM
Outline: as §1

Lapatinib = compound: CS(=O)(=O)CCNCc1ccc(-c2ccc3ncnc(Nc4ccc(OCc5cccc(F)c5)c(Cl)c4)c3c2)o1 [Lapatinib]; conditions: max 10 µM
Outline: as §1

Dasatinib = compound: CC1=C(C(=CC=C1)Cl)NC(=O)C2=CN=C(S2)NC3=CC(=NC(=N3)C)N4CCN(CC4)CCO [Dasatinib]; conditions: max 2 µM
Outline: as §1

Doxorubicin = compound: COc1cccc2c1C(=O)c1c(O)c3c(c(O)c1C2=O)C[C@@](O)(C(=O)CO)C[C@@H]3O[C@H]1C[C@H](N)[C@H](O)[C@H](C)O1 [Doxorubicin]; conditions: max 1 µM
Outline: as §1

AZD2811 = compound: CCN(CCO)CCCOc1ccc2c(Nc3cc(CC(=O)Nc4cccc(F)c4)[nH]n3)ncnc2c1 [AZD2811]; conditions: max 1 µM
Outline: as §1

AZD5991 = compound: Cc1c2c(nn1C)CSCc1cc(n(C)n1)CSc1cc(c3ccccc3c1)OCCCc1c(C(=O)O)n(C)c3c-2c(Cl)ccc13 [AZD5991]; conditions: max 1 µM
Outline: as §1

AZD4320 = compound: CN(CC[C@H](CSC1=CC=CC=C1)NC2=C(C=C(C=C2)S(=O)(=O)NC(=O)C3=CC=C(C=C3)N4CCC(CC4)[C@H](C5=CC=CC=C5C6=CC=C(C=C6)Cl)O)S(=O)(=O)C(F)(F)F)CCO [AZD4320]; conditions: max 1 µM
Outline: as §1

Savolitinib = compound: C[C@@H](c1ccc2nccn2c1)n1nnc2ncc(-c3cnn(C)c3)nc21 [Savolitinib]; conditions: max 1 µM
Outline: as §1

Olaparib = compound: O=C(c1cc(Cc2n[nH]c(=O)c3ccccc23)ccc1F)N1CCN(C(=O)C2CC2)CC1 [Olaparib]; conditions: max 10 µM
Outline: as §1

Prexasertib = compound: COc1cccc(OCCCN)c1-c1cc(Nc2cnc(C#N)cn2)n[nH]1 [Prexasertib]; conditions: max 1 µM
Outline: as §1

Palbociclib = compound: CC(=O)c1c(C)c2cnc(Nc3ccc(N4CCNCC4)cn3)nc2n(C2CCCC2)c1=O [Palbociclib]; conditions: max 10 µM
Outline: as §1

Taselisib = compound: Cc1nc(-c2cn3c(n2)-c2ccc(-c4cnn(C(C)(C)C(N)=O)c4)cc2OCC3)n(C(C)C)n1 [Taselisib]; conditions: max 10 µM
Outline: as §1

Selumetinib = compound: Cn1cnc2c(F)c(Nc3ccc(Br)cc3Cl)c(C(=O)NOCCO)cc21 [Selumetinib]
Outline: as §1

SN-38 = compound: CCc1c2c(nc3ccc(O)cc13)-c1cc3c(c(=O)n1C2)COC(=O)[C@]3(O)CC [SN-38]; conditions: max 0.3 µM
Outline: as §1

Alisertib = compound: COc1cc(Nc2ncc3c(n2)-c2ccc(Cl)cc2C(c2c(F)cccc2OC)=NC3)ccc1C(=O)O [Alisertib]; conditions: max 10 µM
Outline: as §1

AZD1775 = compound: C=CCn1c(=O)c2cnc(Nc3ccc(N4CCN(C)CC4)cc3)nc2n1-c1cccc(C(C)(C)O)n1 [AZD1775]
Outline: as §1

AZD7648 = compound: Cc1cc2ncnn2cc1Nc1ncc2c(n1)n(C1CCOCC1)c(=O)n2C [AZD7648]; conditions: max 10 µM
Outline: as §1

AZD6738 = compound: C[C@@H]1COCCN1C2=NC(=NC(=C2)C3(CC3)[S@](=N)(=O)C)C4=C5C=CNC5=NC=C4 [AZD6738]; conditions: max 10 µM
Outline: as §1

Venetoclax = compound: CC1(C)CCC(CN2CCN(c3ccc(C(=O)NS(=O)(=O)c4ccc(NCC5CCOCC5)c([N+](=O)[O-])c4)c(Oc4cnc5[nH]ccc5c4)c3)CC2)=C(c2ccc(Cl)cc2)C1 [Venetoclax]; conditions: max 1 µM
Outline: as §1

Row | Cell Line | IC50, cell viability 72 h (Trametinib) [nM] | IC50, cell viability 72 h (AZD1390) [nM] | IC50, cell viability 72 h (AZD5153) [nM] | IC50, cell viability 72 h (SG3199) [nM] | IC50, cell viability 72 h (Gefitinib) [nM] | IC50, cell viability 72 h (AZD8186) [nM] | IC50, cell viability 72 h (AZD0156; max 3 µM) [nM] | IC50, cell viability 72 h (Capivasertib; max 10 µM) [nM] | IC50, cell viability 72 h (Crizotinib) [nM] | IC50, cell viability 72 h (Lapatinib) [nM] | IC50, cell viability 72 h (Dasatinib) [nM] | IC50, cell viability 72 h (Doxorubicin) [nM] | IC50, cell viability 72 h (AZD2811) [nM] | IC50, cell viability 72 h (AZD5991) [nM] | IC50, cell viability 72 h (AZD4320) [nM] | IC50, cell viability 72 h (Savolitinib) [nM] | IC50, cell viability 72 h (Olaparib) [nM] | IC50, cell viability 72 h (Prexasertib) [nM] | IC50, cell viability 72 h (Palbociclib) [nM] | IC50, cell viability 72 h (Taselisib) [nM] | IC50, cell viability 72 h (Selumetinib; max 10 µM) [nM] | IC50, cell viability 72 h (SN-38) [nM] | IC50, cell viability 72 h (Alisertib) [nM] | IC50, cell viability 72 h (AZD1775; max 3 µM) [nM] | IC50, cell viability 72 h (AZD7648) [nM] | IC50, cell viability 72 h (AZD6738) [nM] | IC50, cell viability 72 h (Venetoclax) [nM] | IC50, cell viability 72 h (AZD0156; max 1 µM) [nM] | IC50, cell viability 72 h (Capivasertib; max 3 µM) [nM] | IC50, cell viability 72 h (Selumetinib; max 3 µM) [nM] | IC50, cell viability 72 h (AZD1775; max 1 µM) [nM]
1 | GA-10 (Burkitt's Lymphoma) | > 1000 | > 300 | 83.3 | > 1 | > 10000 | 978 | > 3000 | 1480 | 2340 | > 10000 | 166 | 369 | 108 | 252 | > 1000 | > 1000 | > 10000 | 9.18 | 234 | 845 | > 10000 | 23.4 | 147 | 503 | > 10000 | 631 | > 1000 |  |  |  | 
2 | GCT (Other Solid Carcinomas) | 846 | > 300 | 603 | > 1 | > 10000 | > 3000 | > 3000 | 6420 | > 10000 | > 10000 | 703 | > 1000 | > 1000 | > 1000 | > 1000 | > 1000 | > 10000 | > 1000 | > 10000 | 8270 | > 10000 | 43.5 | > 10000 | > 3000 | > 10000 | > 10000 | > 1000 |  |  |  | 
3 | HT55 (Colorectal Carcinoma) | 30.1 | > 300 | 646 | > 1 | > 10000 | > 3000 | > 3000 | > 10000 | > 10000 | 1750 | > 2000 | > 1000 | > 1000 | > 1000 | > 1000 | > 1000 | > 10000 | 268 | 9650 | 753 | 1150 | > 300 | > 10000 | 659 | > 10000 | > 10000 | > 1000 |  |  |  | 
4 | TE-10 (Esophageal Squamous Cell Carcinoma) | 825 |  |  | > 1 |  | > 3000 |  |  |  |  |  | 820 | > 1000 | 290 | > 1000 |  | > 10000 | 11.9 |  | 941 |  | 37.1 | 2930 |  | > 10000 | 1600 | > 1000 | > 1000 | > 3000 | > 3000 | 381
